According to ChEMBL document CHEMBL1201862, “PubChem BioAssay data set” (2004):
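Five compound concentrations were applied to cells in 96-well plates for 48 hours; endpoints were derived by simple linear interpolation of the resulting dose-response curve. The concentration for 50% growth inhibition is given as GI50.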 The source made the active and inactive calls. Cut-off read from the data, not from the text of the source: active = GI50 up to about 1.1 µM and inactive = higher.

Key:
Test in all cases: DTP human tumour cell line panel, 48 h
786-0 = tested on: 786-0
A498 = tested on: A498
ACHN = tested on: ACHN
HCT-116 = tested on: HCT-116
HOP-62 = tested on: HOP-62
HOP-92 = tested on: HOP-92
IGROV-1 = tested on: IGROV-1
MCF7 = tested on: MCF7
MDA-MB-231 = tested on: MDA-MB-231
Malme-3M = tested on: Malme-3M
NCI-H226 = tested on: NCI-H226
OVCAR-3 = tested on: OVCAR-3
OVCAR-5 = tested on: OVCAR-5
RXF 393 = tested on: RXF 393
SF-268 = tested on: SF-268
SF-539 = tested on: SF-539
SK-MEL-2 = tested on: SK-MEL-2
SR = tested on: SR
U-251 = tested on: U-251
UACC-62 = tested on: UACC-62

| SMILES | GI50 (786-0) | GI50 (A498) | GI50 (ACHN) | GI50 (HCT-116) | GI50 (HOP-62) | GI50 (HOP-92) | GI50 (IGROV-1) | GI50 (MCF7) | GI50 (MDA-MB-231) | GI50 (Malme-3M) | GI50 (NCI-H226) | GI50 (OVCAR-3) | GI50 (OVCAR-5) | GI50 (RXF 393) | GI50 (SF-268) | GI50 (SF-539) | GI50 (SK-MEL-2) | GI50 (SR) | GI50 (U-251) | GI50 (UACC-62) |
| --- | --- | --- | --- | --- | --- | --- | --- | --- | --- | --- | --- | --- | --- | --- | --- | --- | --- | --- | --- | --- |
| CC(=O)[C@H]1[C@H](O)C[C@@]2(C)[C@@H]3CCc4cc(O)c(OC5OC(CO)C(O)C(O)C5O)cc4C3(C)C(=O)C[C@]12C (stereo not given in full) | > 100 µM (inactive) | > 100 µM (inactive) | > 100 µM (inactive) | > 100 µM (inactive) | > 100 µM (inactive) | > 100 µM (inactive) | > 100 µM (inactive) | > 100 µM (inactive) | > 100 µM (inactive) | > 100 µM (inactive) | > 100 µM (inactive) | > 100 µM (inactive) | > 100 µM (inactive) | > 100 µM (inactive) | > 100 µM (inactive) | > 100 µM (inactive) | > 100 µM (inactive) | > 100 µM (inactive) | > 100 µM (inactive) | > 100 µM (inactive) |
| CCCc1ccc(OCC(=O)N/N=C/c2c(-c3ccccc3)[nH]c3ccccc23)cc1 | 14.1 µM (inactive) | 14.4 µM (inactive) | 13.1 µM (inactive) | 8.97 µM (inactive) | 12.9 µM (inactive) | 13.7 µM (inactive) | 13.1 µM (inactive) | 4.57 µM (inactive) | 7.06 µM (inactive) | 7.85 µM (inactive) | 17.3 µM (inactive) | 24.5 µM (inactive) | 22.4 µM (inactive) | 11.1 µM (inactive) | 27.7 µM (inactive) | 16.2 µM (inactive) | 3.23 µM (inactive) | 3.85 µM (inactive) | 6.19 µM (inactive) | 11.9 µM (inactive) |
| Cc1c(O)c(OC2OC(CO)C(O)C(O)C2O)cc2c1C=C[C@@H]1[C@@]2(C)C(=O)C[C@]2(C)[C@@H]([C@@](C)(O)C(O)/C=C/C(C)(C)O)[C@H](O)C[C@@]12C (stereo not given in full) | > 100 µM (inactive) | > 100 µM (inactive) | > 100 µM (inactive) | > 100 µM (inactive) | > 100 µM (inactive) | > 100 µM (inactive) | > 100 µM (inactive) | > 100 µM (inactive) | > 100 µM (inactive) | > 100 µM (inactive) | > 100 µM (inactive) | > 100 µM (inactive) | > 100 µM (inactive) | > 100 µM (inactive) | > 100 µM (inactive) | > 100 µM (inactive) | > 100 µM (inactive) | > 100 µM (inactive) | > 100 µM (inactive) | > 100 µM (inactive) |
| CC(=O)CC1CCC(=O)/C=C/C(=O)OC(CC(C)=O)CCC(=O)/C=C/C(=O)O1 (stereo not given) | 5.15 µM (inactive) | 18.3 µM (inactive) | 3.44 µM (inactive) | 4.1 µM (inactive) | 23.3 µM (inactive) | 3.78 µM (inactive) | 16.1 µM (inactive) | 9.25 µM (inactive) | 5.09 µM (inactive) | 2.43 µM (inactive) | 33 µM (inactive) | 6.79 µM (inactive) | 17.6 µM (inactive) | 3.22 µM (inactive) | 25.9 µM (inactive) | 19.3 µM (inactive) | 6.61 µM (inactive) | 2.23 µM (inactive) | 21.4 µM (inactive) | 14.6 µM (inactive) |
| CC(=O)c1cc2c(s1)C(=O)c1sccc1C2=O | 0.195 µM (active) | 1.26 µM (inactive) | 0.0209 µM (active) | 0.0698 µM (active) | 0.0434 µM (active) | 0.294 µM (active) | 0.168 µM (active) | 0.0301 µM (active) | 0.0346 µM (active) | 0.0163 µM (active) | 0.198 µM (active) | < 0.014 µM (active) | 0.0664 µM (active) | 0.0254 µM (active) | 0.0267 µM (active) | 0.0181 µM (active) | 0.076 µM (active) | 0.0133 µM (active) | 0.017 µM (active) | 0.0333 µM (active) |
